In US9796719B2, “Compounds and pharmaceutical compositions thereof for the treatment of inflammatory disorders” (GALAPAGOS NV, priority 2013, dated 2017):

Experiments:
hENPP2 [1] = biological target: T1, hENPP2 (UniProtKB/SwissProt Sequence ref Q13822) (Homo sapiens (Human), UniProt Q13822); test: FS3 hENPP2 assay (fluorogenic substrate FS-3); format: biochemical; conditions: hENPP2, FS-3 as substrate
Method: Compound IC50 values are determined in a fluorescent hENPP2 (UniProtKB/SwissProt Sequence ref Q13822) biochemical assay using the fluorogenic autotaxin substrate FS-3 as substrate. FS-3 is a doubly labeled analog of LPC wherein the fluorophore is quenched through intramolecular energy transfer. Without hENPP2, the emission of the probe is quenched. If the substrate is hydrolyzed by hENPP2, the emission of the probe is not quenched anymore resulting in a fluorescence increase. Inhibition of hENPP2 by compounds will result in a decrease of the signal.
10 μL of a dilution series of compound, starting from 20 μM highest concentration, ⅕ dilution, is added to the wells. hENPP2 is used at a final concentration of 0.4 μg/mL or 0.64 μg/mL (it will be appreciated by the skilled person that the potency read out is independent of the enzyme concentration). The enzyme is diluted in 50 mM Tris-HCl pH 8.0, 250 mM NaCl, 5 mM KCl, 1 mM MgCl2, 1 mM CaCl2, 0.1% fatty acid free BSA in a total volume of 20 μL. Enzyme mixture is added to compounds and the resulting mixture is incubated for 30 min at room temperature under shaking. The reaction is started by the addition of 20 μL of 0.75 μM FS-3 diluted in the same buffer as described above and the mixture is incubated at 30° C. for 30 min. Fluorescence is read on the Envision (Excitation 485 nm, emission 520 nm).

hENPP2 [2] = biological target: T1, hENPP2; test: LPC hENPP2 assay (choline release, LPC as substrate); format: biochemical
Procedure, shortened: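 Detection is coupled: choline oxidase produces peroxide, which HRP uses to form quinoneimine dye from TOOS and 4-aminoantipyrine, read at 555 nm. The reaction is stopped with 20 mM EGTA in the developer mix, then incubated 30 min at room temperature; inhibition lowers signal.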

Row | IC50 (hENPP2 [1]) [nM] | IC50 (hENPP2 [2]) [nM] | Structure (SMILES)
1 | 0.01 to 25 | 100 to 500 | CCc1nc2ccc(N3CCN(CCN4CCCC4=O)CC3)nn2c1N(C)c1nc(-c2ccc(F)cc2)cs1 [Cpd 46, 1-(2-(4-(2-ethyl-3-((4-(4-fluorophenyl)thiazol-2-yl)(methyl)amino)imidazo[1,2-b]pyridazin-6-yl)piperazin-1-yl)ethyl)pyrrolidin-2-one]
2 | 0.01 to 25 | 100 to 500 | CCc1nc2ccc(N3CCN(CC(=O)N4CCOCC4)[C@H](CO)C3)nn2c1N(C)c1nc(-c2ccc(F)cc2)cs1 [Cpd 65, (S)-2-(4-(2-ethyl-3-((4-(4-fluorophenyl)thiazol-2-yl)(methyl)amino)imidazo[1,2-b]pyridazin-6-yl)-2-(hydroxymethyl)piperazin-1-yl)-1-morpholinoethanone]
3 | 0.01 to 25 | > 1000 | CCc1nc2ccc(N3CCC(NC(=O)OC(C)(C)C)CC3)nn2c1N(C)c1nc(-c2ccc(F)cc2)cs1 [Cpd 81, tert-butyl 1-(2-ethyl-3-((4-(4-fluorophenyl)thiazol-2-yl)(methyl)amino)imidazo[1,2-b]pyridazin-6-yl)piperidin-4-ylcarbamate]
4 | 0.01 to 25 | > 1000 | CCc1nc2ccc(N3CCN(CCC#N)CC3)nn2c1N(C)c1nc(-c2ccc(F)cc2)cs1 [Cpd 51]
5 | 0.01 to 25 | > 1000 | CCc1nc2ccc(N3CCN(CC(=O)NC(C)C)CC3)nn2c1N(C)c1nc(-c2ccc(F)cc2)cs1 [Cpd 54, 2-(4-(2-ethyl-3-((4-(4-fluorophenyl)thiazol-2-yl)(methyl)amino)imidazo[1,2-b]pyridazin-6-yl)piperazin-1-yl)-N-isopropylacetamide]
6 | 25 to 50 | > 1000 | CCc1nc2ccc(N3CCCC(O)C3)nn2c1N(C)c1nc(-c2ccc(F)cc2)cs1 (stereo not shown) [Cpd 91, 1-(2-ethyl-3-((4-(4-fluorophenyl)thiazol-2-yl)(methyl)amino)imidazo[1,2-b]pyridazin-6-yl)piperidin-3-ol]
7 | 0.01 to 25 | 100 to 500 | CCc1nc2ccc(N3CCN(CC(=O)N4CCCC4)[C@H](CO)C3)nn2c1N(C)c1nc(-c2ccc(F)cc2)cs1 [Compound 64, (S)-2-(4-(2-ethyl-3-((4-(4-fluorophenyl)thiazol-2-yl)(methyl)amino)imidazo[1,2-b]pyridazin-6-yl)-2-(hydroxymethyl)piperazin-1-yl)-1-(pyrrolidin-1-yl)ethanone]
8 | 0.01 to 25 | 100 to 500 | CCc1nc2cnc(N3CCN(CC(=O)N4CCCC4)CC3)cn2c1N(C)c1nc(-c2ccc(F)cc2)c(C#N)s1 [Cpd 8, 2-((2-ethyl-6-(4-(2-oxo-2-(pyrrolidin-1-yl)ethyl)piperazin-1-yl)imidazo[1,2-a]pyrazin-3-yl)(methyl)amino)-4-(4-fluorophenyl) thiazole-5-carbonitrile]
9 | 0.01 to 25 | 500 to 1000 | CN(c1nc(-c2ccc(F)cc2)cs1)c1c(CCC(N)=O)nc2ccc(C3CCN(S(C)(=O)=O)CC3)nn12 [Compound 197, 3-(3-((4-(4-fluorophenyl)thiazol-2-yl)(methyl)amino)-6-(1-(methylsulfonyl)piperidin-4-yl)imidazo[1,2-b]pyridazin-2-yl)propanamide]
10 | 0.01 to 25 | 500 to 1000 | CCc1nc2ccc(N3CCC(N4CCN(CCCO)CC4)C3)nn2c1N(C)c1nc(-c2ccc(F)cc2)cs1 (stereo not shown) [Cpd 145, 3-(4-(1-(2-ethyl-3-((4-(4-fluorophenyl)thiazol-2-yl)(methyl)amino)imidazo[1,2-b]pyridazin-6-yl)pyrrolidin-3-yl)piperazin-1-yl)propan-1-ol]
11 | 0.01 to 25 | > 1000 | CCc1nc2ccc(N3CCCC3CO)nn2c1N(C)c1nc(-c2ccc(F)cc2)cs1 (stereo not shown) [Cpd 142, (1-(2-ethyl-3-((4-(4-fluorophenyl)thiazol-2-yl)(methyl)amino)imidazo[1,2-b]pyridazin-6-yl)pyrrolidin-2-yl)methanol]
12 | 0.01 to 25 | – | CCc1nc2ccc(C3=CCN(C(=O)OC(C)(C)C)CC3)nn2c1N(C)c1nc(-c2ccc(F)cc2)cs1 [Compound 193, tert-butyl 4-(2-ethyl-3-((4-(4-fluorophenyl)thiazol-2-yl)(methyl)amino)imidazo[1,2-b]pyridazin-6-yl)-5,6-dihydropyridine-1(2H)-carboxylate]
13 | 0.01 to 25 | 100 to 500 | CCc1nc2ccc(C3CCN(CC(=O)N4CC(O)C4)CC3)nn2c1N(C)c1nccc(-c2ccc(F)cc2)n1 [Cpd 215, 2-(4-(2-ethyl-3-((4-(4-fluorophenyl)pyrimidin-2-yl)(methyl)amino)imidazo[1,2-b]pyridazin-6-yl)piperidin-1-yl)-1-(3-hydroxyazetidin-1-yl)ethanone]
14 | 0.01 to 25 | > 1000 | CCc1nc2ccc(N3CC(NC(=O)OC(C)(C)C)C3)nn2c1N(C)c1nc(-c2ccc(F)cc2)cs1 [Cpd 154, [1-(2-Ethyl-3-{[4-(4-fluoro-phenyl)-thiazol-2-yl]-methyl-amino}-imidazo[1,2-b]pyridazin-6-yl)-azetidin-3-yl]-carbamic acid tert-butyl ester]
15 | 0.01 to 25 | 500 to 1000 | CCc1nc2cnc(N3CCN(CC(=O)NC)CC3)cn2c1N(C)c1nc(-c2ccc(F)cc2)c(C#N)s1 [Cpd 9, 2-(4-(3-((5-cyano-4-(4-fluorophenyl)thiazol-2-yl)(methyl)amino)-2-ethylimidazo[1,2-a]pyrazin-6-yl)piperazin-1-yl)-N-methylacetamide]
16 | 0.01 to 25 | 500 to 1000 | CCc1nc2ccc(N3CCC(CC(=O)N(C)C)CC3)nn2c1N(C)c1nc(-c2ccc(F)cc2)cs1 [Cpd 108, 2-(1-(2-ethyl-3-((4-(4-fluorophenyl)thiazol-2-yl)(methyl)amino)imidazo[1,2-b]pyridazin-6-yl)piperidin-4-yl)-N,N-dimethylacetamide]
17 | 25 to 50 | > 1000 | CCc1nc2ccc(N3CCS(=O)(=O)CC3)nn2c1N(C)c1nc(-c2ccc(F)cc2)cs1 [Compound 79, [6-(1,1-Dioxothiomorpholin-4-yl)-2-ethyl-imidazo[1,2-b]pyridazin-3-yl]-[4-(4-fluoro-phenyl)-thiazol-2-yl]-methyl-amine]
18 | 0.01 to 25 | 100 to 500 | CCc1nc2ccc(N3CCN(CC(=O)N4CCCC4)CC3)nn2c1N(C)c1nc(-c2ccc(F)cc2)cs1 [Cpd 55, 2-(4-(2-ethyl-3-((4-(4-fluorophenyl)thiazol-2-yl)(methyl)amino)imidazo[1,2-b]pyridazin-6-yl)piperazin-1-yl)-1-(pyrrolidin-1-yl)ethanone]
19 | 0.01 to 25 | > 1000 | CCc1nc2ccc(N3CCN[C@H](CO)C3)nn2c1N(C)c1nc(-c2ccc(F)cc2)cs1 [Cpd 60, (S)-(4-(2-ethyl-3-((4-(4-fluorophenyl)thiazol-2-yl)(methyl)amino)imidazo[1,2-b]pyridazin-6-yl)piperazin-2-yl)methanol]
20 | 0.01 to 25 | 500 to 1000 | CCc1nc2ccc(N3CCN(S(C)(=O)=O)C(CCO)C3)nn2c1N(C)c1nc(-c2ccc(F)cc2)cs1 (stereo not shown) [Cpd 72, 2-(4-(2-ethyl-3-((4-(4-fluorophenyl)thiazol-2-yl)(methyl)amino)imidazo[1,2-b]pyridazin-6-yl)-1-(methylsulfonyl)piperazin-2-yl) ethanol]
21 | 0.01 to 25 | > 1000 | CCc1nc2ccc(N3CCCC(CNC(=O)OC(C)(C)C)C3)nn2c1N(C)c1nc(-c2ccc(F)cc2)cs1 (stereo not shown) [Cpd 100, [1-(2-Ethyl-3-{[4-(4-fluoro-phenyl)-thiazol-2-yl]-methyl-amino}-imidazo[1,2-b]pyridazin-6-yl)-piperidin-3-ylmethyl]-carbamic acid tert-butyl ester]
22 | 0.01 to 25 | > 1000 | CCc1nc2ccc(N3CCCN(S(C)(=O)=O)CC3)nn2c1N(C)c1nc(-c2ccc(F)cc2)cs1 [Cpd 116, N-(2-ethyl-6-(4-(methylsulfonyl)-1,4-diazepan-1-yl)imidazo[1,2-b]pyridazin-3-yl)-4-(4-fluorophenyl)-N-methylthiazol-2-amine]
23 | 0.01 to 25 | > 1000 | CCc1nc2ccc(N3CCN4C(=O)OC[C@@H]4C3)nn2c1N(C)c1nc(-c2ccc(F)cc2)cs1 [Compound 61, (S)-7-(2-ethyl-3-((4-(4-fluorophenyl)thiazol-2-yl)(methyl)amino)imidazo[1,2-b]pyridazin-6-yl)tetrahydro-1H-oxazolo[3,4-a]pyrazin-3 (5H)-one]
24 | 0.01 to 25 | > 1000 | CCc1nc2ccc(N3CCC(C(=O)O)CC3)nn2c1N(C)c1nc(-c2ccc(F)cc2)cs1 [Compound 96, 1-(2-ethyl-3-((4-(4-fluorophenyl)thiazol-2-yl)(methyl)amino)imidazo[1,2-b]pyridazin-6-yl)piperidine-4-carboxylic acid]
25 | 0.01 to 25 | 0.01 to 100 | CCc1nc2ccc(N3CCN(CC(=O)N4CC(O)C4)CC3)nn2c1N(C)c1nc(-c2ccc(F)cc2)c(C#N)s1 [Cpd 27, 2-((2-ethyl-6-(4-(2-(3-hydroxyazetidin-1-yl)-2-oxoethyl)piperazin-1-yl)imidazo[1,2-b]pyridazin-3-yl)(methyl)amino)-4-(4-fluorophenyl) thiazole-5-carbonitrile]
